According to US20030215498A1, “Rapidly disintegrating comressed tablets comprising biologically active compounds” (priority 2002, published 2003):

Experiment: Dissolution testing of acetaminophen particles (USP XXIII, Apparatus 2, paddle)
Assay type: physicochemical
Settings: 900 ml water, 37° C., USP Apparatus 2, paddle 50 rpm, amount equivalent to 500 mg acetaminophen, n = 6
Protocol: Dissolution testing of the acetaminophen particles was carried out using USP XXIII “Acetaminophen capsules” and “Dissolution '711”, which are incorporated herein by reference. The method was adapted to use a relevant quantity of powder, i.e. an amount equivalent to 500 mg of acetaminophen in the dissolution bowl. This quantity represents a standard amount of […] in marketed U.S.A. over-the-counter (OTC) products. The operating conditions included 900 ml of water at 37° C. in a USP Apparatus 2 with paddle speed set at 50 rpm. FIG. 1 presents the dissolution-curves of acetaminophen and 4.6% lipid-based coated acetaminophen, i.e. 4.6% coating and 95.4% acetaminophen.

Dissolution % (5 min): 66.3% | Dissolution % (10 min): 90.8% | Dissolution % (15 min): 95.7% | Dissolution % (20 min): 97.1% | Dissolution % (30 min): 97.5% | Dissolution % (45 min): 97.7% | Dissolution % (60 min): 97.7%
SMILES: CC(=O)Nc1ccc(O)cc1 [100% Acetaminophen, Acetaminophen]
